Measured values as given in patent US8637670B2, “Imidazo [4,5-C]quinoline derivatives and their use in the treatment of tumors and/or inflammation” (Piramal Enterprises Limited, priority 2009, dated 2014).
Blank lines part the entries; values can stand above or below the molecule they belong to.

How the values were obtained:
PI3K α = assay: PI3K activity assay, cell-based ELISA of AKT (Ser 473) phosphorylation; settings: Homo sapiens, Ovarian cell line A2780, 20% FCS stimulation
Procedure: (§1) The assay was designed as in the reference, Biochemical Journal, 2000, 350, 717-722, the disclosure of which is incorporated by reference for the teaching of the assay.
(§2) Seed cells (Ovarian cell line A2780, ATCC) were plated in a 96 well microtitre plate at a density of 50,000 cells/cm^2 in appropriate complete cell culture medium. The cells were allowed to adhere for 18-24 hours. The cells were allowed to starve for 24 hours. The cells were pretreated (in triplicates) with the compounds of Example 1-40 (stock solution was prepared in DMSO and subsequent dilutions were made in kinase buffer) at a concentration of 10 μM for one hour. Then the cells were stimulated with 20% FCS for 30 minutes. A typical assay would consist of a set of unstimulated cells, a set of stimulated cells and a set of cells treated with compounds of Example 1-40 and a set of cells treated with the stimulator. The medium was discarded. The cells were fixed with 100 μL of 3.7% formaldehyde for 15 minutes. The formaldehyde was discarded by inverting the plate and tapping it on a thick tissue paper layer to remove traces. The cells were washed and permeabilized with 200 μL PBS+Triton-X 100 solution (hereafter referred to as PBS-Triton, containing 0.1% triton-X 100 in 1×PBS) three times, incubating the cells each time for 5 minutes. 100 μL blocking solution (10% FCS in PBS-Triton) was added and incubated for 1 hour at 25° C. The blocking solution was discarded and cells were incubated with the primary antibody in PBS-Triton at a dilution of 1:500 for 1 hour at RT (25° C.). [The primary antibody is Phospho-AKT (Ser 473); Cell Signaling; USA, Cat. No. 9271]. The primary antibody solution was discarded and the cells were washed 3 times with PBS-Triton solution and incubated with the HRP-conjugated secondary antibody in PBS-Triton at a dilution of 1:500 for 1 hour at RT (25° C.). The cells were washed 3 times with PBS-Triton followed by two washes with PBS (to remove traces of triton-X 100). The OPD (o-phenylene diamine dihydrochloride) substrate was prepared for detection of the signal by dissolving one tablet set (two tablets) of SigmaFast OPD (Sigma, USA, Cat No. P9187) in 20 mL distilled water. It should be kept protected from light. 100 μL OPD solutions was added to the wells and the plate was incubated in the dark for 3-5 minutes (depending upon the development of the color). The reaction was stopped by adding 50 μL 2 NH2SO4. The absorbance was measured at 490 nm. The values were expressed in the treated samples, in terms of percentage or fold decrease in AKT phosphorylation with respect to the induced sample. PI-103 (Calbiochem, USA) was used as a standard.

A549 = assay: Cytotoxicity, propidium iodide assay, A549; assay type: cell-based; settings: Homo sapiens; Lung, A549, 48 hours treatment; read-out: IC50, C1a (A549)
Procedure, shortened: (§3)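 Cells seeded at 3000 cells/well, incubated 18-24 hours at 37° C./5% CO2, then exposed to a range of compound concentrations for 48 hours. After a PBS wash, 7 μg/ml propidium iodide was added, plates frozen at −70° C. for at least 24 hours, thawed and read by fluorescence; IC50 from viability relative to untreated wells.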

H460 = assay: Cytotoxicity, propidium iodide assay, H460; assay type: cell-based; settings: Homo sapiens, NCI-H460; Lung, H460, 48 hours treatment; read-out: IC50, C1b (H460)
Procedure, shortened: as §3

U 373 = assay: Cytotoxicity, propidium iodide assay, U 373; assay type: cell-based; settings: Homo sapiens, U373 MG; Glioblastoma, U 373, 48 hours treatment; read-out: IC50, C7a (U 373)
Procedure, shortened: as §3

IL-6 = assay: Human monocyte assay, LPS-stimulated IL-6 (ELISA); assay type: cell-based; settings: human monocytes, 1 μg/ml LPS, 5 hours
Procedure, shortened: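 Adherent human PBMC-derived monocytes (2×10^4/well, cultured 48 h) were pretreated with compound or 0.5% DMSO vehicle for 30 min, then stimulated with 1 μg/ml E. coli 0111:B4 LPS for 5 h at 37 °C. Supernatant IL-6 and TNF-α were measured by ELISA; IC50 by nonlinear regression, with MTS toxicity on a parallel plate.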

mTOR = mTOR activity assay (cell-based); settings: Homo sapiens, Ovarian cell line A2780
Procedure: as §1, §2

IC50 (IL-6): 1000 to 10000 nM
SMILES: Cc1cccc(S(=O)(=O)n2c(=O)n(-c3ccc(C(C)(C)C#N)cc3)c3c4cc(Br)ccc4ncc32)c1 [Example 3, 2-(4-(8-Bromo-2-oxo-3-(m-tolylsulfonyl)-2,3-dihydro-1H-imidazo[4,5-c]quinolin-1-yl)phenyl)-2-methylpropanenitrile]
inhibition at 10 µM (PI3K α): 10 to 50%
IC50 (A549): 1000 to 3000 nM
IC50 (H460): ≤ 1000 nM
IC50 (U 373): > 3000 nM

IC50 (IL-6): ≤ 1000 nM
SMILES: C/C=C/C(=O)n1c(=O)n(-c2ccc(C(C)(C)C#N)cc2)c2c3cc(Br)ccc3ncc21 [Example 27, (E)-2-(4-(8-Bromo-3-but-2-enoyl-2-oxo-2,3-dihydro-1H-imidazo[4,5-c]quinolin-1-yl)phenyl)-2-methylpropanenitrile]
inhibition at 10 µM (PI3K α): > 50%
inhibition at 10 µM (mTOR): > 50%
IC50 (A549): ≤ 1000 nM
IC50 (H460): ≤ 1000 nM

IC50 (IL-6): ≤ 1000 nM
SMILES: CC(C)(C#N)c1ccc(-n2c(=O)n(C(=O)c3ccccc3)c3cnc4ccc(Br)cc4c32)cc1 [Example 30, 2-(4-(3-Benzoyl-8-bromo-2-oxo-2,3-dihydro-1H-imidazo[4,5-c]quinolin-1-yl)phenyl)-2-methylpropanenitrile]
inhibition at 10 µM (PI3K α): 10 to 50%
inhibition at 10 µM (mTOR): 10 to 50%
IC50 (A549): 1000 to 3000 nM
IC50 (H460): ≤ 1000 nM
IC50 (U 373): ≤ 1000 nM

IC50 (IL-6): ≤ 1000 nM
SMILES: CC(C)(C#N)c1ccc(-n2c(=O)n(C(=O)c3ccccc3)c3cnc4ccc(Cl)cc4c32)cc1 [Example 37, 2-(4-(3-Benzoyl-8-chloro-2-oxo-2,3-dihydro-1H-imidazo[4,5-c]quinolin-1-yl)phenyl)-2-methylpropanenitrile]
inhibition at 10 µM (mTOR): 10 to 50%
IC50 (A549): 1000 to 3000 nM
IC50 (H460): 1000 to 3000 nM
IC50 (U 373): > 3000 nM

IC50 (IL-6): ≤ 1000 nM
SMILES: C/C=C/C(=O)n1c(=O)n(-c2ccc(C(C)(C)C#N)cc2)c2c3cc(Cl)ccc3ncc21 [Example 38, (E)-2-(4-(3-But-2-enoyl-8-chloro-2-oxo-2,3-dihydro-1H-imidazo[4,5-c]quinolin-1-yl)phenyl)-2-methylpropanenitrile]
inhibition at 10 µM (PI3K α): > 50%
inhibition at 10 µM (mTOR): > 50%
IC50 (A549): ≤ 1000 nM
IC50 (H460): ≤ 1000 nM
